# From EP2282358A1, “Host material for light-emitting devices” (Solvay SA, priority 2009, dated 2011)
# Where two headings read alike, the source gives them in different places.
# Legend:
# [1] = HOMO and LUMO measurement (cyclic voltammetry and optical energy gap); assay type: physicochemical; details: for HOMO: estimated from the LUMO level and the optical energy gap (UV-visible absorption onset); for LUMO: from peak potential of 1st reduction wave, cyclic voltammetry in anhydrous tetrahydrofuran, ferrocene internal standard
# Protocol: The LUMO (lowest unoccupied molecular orbital) levels are estimated from cyclic voltammetry. Voltammetric measurements are performed using a PC-controlled Autolab PGSTAT128N electrochemical workstation coupled with a 663 VA Stand measure unit. Cyclic voltammograms are recorded at room temperature under an argon atmosphere in anhydrous tetrahydrofuran using 0.1 M tetrabutylammonium hexafluorophosphate (Fluka electrochemical grade) as supporting electrolyte. The working electrode is a glassy carbon disk and the counter electrode is a platinum wire or a glassy carbon rod. A silver/silver chloride electrode filled with a methanolic saturated KCl solution or a platinum wire pseudo-reference has been used as reference electrode. The sample solutions (0.5 mM) are outgassed with argon for 10 minutes before measurement. Measurements are performed with a sweep rate fixed to 0.1 V/s. Ferrocene is used as internal standard.
# The LUMO level is estimated from the peak potential of the 1st observed reduction wave (E1 reduct.) using the following equation: ELUMO -(-4.8) = -[E1 reduct-EOX ½(Fc/(Fc)^+)] [formula] where EHOMO (ferrocene) has been taken equal to -4.8 eV below the vacuum level and EOX ½ (Fc/Fc^+) corresponds to the half-wave oxidation potential of the ferrocene internal standard.
# The HOMO level could not be estimated directly from CV measurements because the 1st oxidation wave lies beyond the stability window of the two tested solvents (tetrahydrofuran and dichloromethane). The HOMO level is thus estimated from the LUMO level and optical energy gap (Eopt g): EHOMO = ELUMO -Eopt g , [formula] the optical energy gap being determined from the absorption onset in the UV-visible absorption spectrum.
# [2] = Solubility tests in organic solvents; assay type: physicochemical; details: for solubilities toward chlorobenzene and toluene: result in words
compound,measurement,setting,value
CC(C)(C)c1ccc(-c2nnc(-c3cc(-c4nnc(-c5ccc(C(C)(C)C)cc5)o4)cc(C(F)(F)C(F)(F)C(F)(F)C(F)(F)C(F)(F)C(F)(F)F)c3)o2)cc1 [Formula C6F13-OXD7],HOMO,[1],-6.1 eV
same,LUMO,[1],-2.5 eV
same,solubilities toward chlorobenzene and toluene,[2],good solubilities
same,Solubility in chlorobenzene,[2]; solvent chlorobenzene,> 4.5 wt%
same,Solubility in toluene,[2]; solvent toluene,2.5 wt%
CC(C)(C)c1ccc(-c2nnc(-c3cc(-c4nnc(-c5ccc(C(C)(C)C)cc5)o4)cc(C(C)(C)C)c3)o2)cc1 [tBu-OXD7],HOMO,[1],-6.0 eV
same,LUMO,[1],-2.3 eV
same,solubilities toward chlorobenzene and toluene,[2],good solubilities
same,Solubility in chlorobenzene,[2]; solvent chlorobenzene,> 7.2 wt%
same,Solubility in toluene,[2]; solvent toluene,> 5 wt%
"CC(C)(C)c1ccc(-c2nnc(-c3cccc(-c4nnc(-c5ccc(C(C)(C)C)cc5)o4)c3)o2)cc1 [OXD7, reference compound]",HOMO,[1],-6.0 eV
same,LUMO,[1],-2.3 eV
same,Solubility in chlorobenzene,[2],< 1.5 wt%
same,Solubility in toluene,[2],Not soluble
same,solubility for most organic solvents,[2],lacks solubility
